{
  "source": "patent US12680081B2",
  "about": "“Human induced pluripotent stem cell line transformed with fluorescent protein-labeled cytochrome P450 and AHR modulator screening method using same” (priority 2020, dated 2026)",
  "key": {"CYP1A1 mRNA": {"tested_on": "CYP1A1 mRNA", "description": "8. Quantitative Reverse Transcription PCR (RT-qPCR)\nTotal RNA was extracted from each sample using NucleoZOL reagent (Macherey-Nagel, Duren, Germany) and reverse transcription was performed using GoScript™ reverse transcription mix (Promega) according to the manufacturer's protocol. RT-qPCR was performed with SYBR Green Realtime PCR Master Mix (TOYOBO, Osaka, Japan) in StepOnePlus Real-Time PCR system (Applied Biosystems, Foster City, Calif., USA). PCR amplification was performed in triplicate for each sample. PCR results were expressed as relative fold change compared to the control cells after normalization with glyceraldehyde-3-phosphate dehydrogenase (GAPDH). The ΔCt (SΔCt) value was calculated as the difference between the Ct value obtained for GAPDH and the target gene. The ΔCt value of the control cells was used as the control ΔCt (CΔCt) value. The relative gene expression level was determined using the following formula: 2−(SΔCt−CΔCt).\nAfter preparing cells for RNA extraction, RT-qPCR analysis for the expression of CYP1A1 mRNA was performed according to the above procedure. Dose-response curves were created by the least squares fitting method using GraphPad Prism 5 (GraphPad, San Diego, Calif., USA)."}, "AHR-CYP1A1 axis": {"tested_on": "AHR-CYP1A1 axis", "assay": "High-content screening (HCS) of mCherry intensity in live CYP1A1-mCherry HLCs", "conditions": "for inhibition of the effect of TCDD on mCherry expression: human", "description": "9. Chemical Treatment and High-Content Screening (HCS)\nTo perform HCS, the cells differentiated for 10 days were dissociated, plated in a Matrigel®-coated 96-well plate, and cultured for maturation. […] DMSO was used as a vehicle control. For staining the live cell nucleus, cells were cultured with 2 μg/ml of Hoechst 33342 (Life Technologies) for 10 minutes. Stained cells were imaged using ImageXpress Micro XLS Widefield High-Content Analysis System (Molecular Devices, San Jose, Calif., USA). The acquired images were analyzed using MetaXpress High-Content Image Acquisition and Analysis Software (Molecular Devices) according to disclosed methods. For analysis, cells were first identified using Hoechst staining and mCherry intensity was detected to measure CYP1A1 expression."}, "CYP1A1": {"tested_on": "CYP1A1", "assay": "Ethoxyresorufin-O-deethylase (EROD) analysis of CYP1A1 activity in CYP1A1-mCherry HLCs", "conditions": "for inhibition of the effect of TCDD on CYP1A1 activity: FIG. 10d", "procedure": "Ethoxyresorufin-O-Deetylase (EROD) Analysis\nTo measure the CYP1A1 activity, cells were cultured in a serum-free medium for 24 hours before treatment. The cells were treated with 7.5 μM ethoxyresorufin in the presence or absence of 10 μM dicumarol (inhibitor) in HBSS for 7.5, 15, 30 and 60 minutes, and 100 μl of the medium was removed into a new microcentrifuge tube. The same amount (100 μl) of ice-cold acetonitrile-methanol was added to the removed medium, followed by brief vortexing and centrifugation at 16,000×g for 5 minutes at 4° C. The supernatant was used for the following analysis. The level of the metabolite resorufin was measured by high-performance liquid chromatography (HPLC) with a Luna C18 column (4.6×150 mm, 5 μm; Phenomenex, Seoul, Korea). The moving phase was composed of 20 mM phosphate buffer-methanol-acetonitrile (52:45:3, v/v/v), and the flow rate was 0.8 ml/minute. Fluorescence was measured at an excitation wavelength of 560 nm and an emission wavelength of 585 nm. Concentrations were calculated using a standard curve for resorufin normalized by the total cellular protein content measured using a BCA protein analysis kit (Thermo Fisher Scientific)."}, "CYP1A1-mCherry HLC": {"tested_on": "CYP1A1-mCherry HLC", "assay": "Cell viability analysis (cell counting Kit-8)", "format": "cell-based", "conditions": "working concentration 10 μM, 24 hours, FIG. 10b", "description": "11. Cell Viability Analysis\nTo analyze cell viability, target chemicals (10 μM) were treated for 24 hours prior to performing cell viability analysis. Then, 10 μl of cell counting Kit-8 was added to 100 μl of the medium, followed by incubation for 2 hours. Absorbance was measured at 450 nm using an iMark™ microplate absorbance reader (Bio-Rad). Cell viability was calculated using the following formula: Cell viability (%)=(Asample−Ablank)/(Acontrol−Ablank)×100"}, "mouse AHR": {"target": "T1, mouse AHR (Mus musculus, UniProt P30561)", "T1 sequence (P30561 10-848)": "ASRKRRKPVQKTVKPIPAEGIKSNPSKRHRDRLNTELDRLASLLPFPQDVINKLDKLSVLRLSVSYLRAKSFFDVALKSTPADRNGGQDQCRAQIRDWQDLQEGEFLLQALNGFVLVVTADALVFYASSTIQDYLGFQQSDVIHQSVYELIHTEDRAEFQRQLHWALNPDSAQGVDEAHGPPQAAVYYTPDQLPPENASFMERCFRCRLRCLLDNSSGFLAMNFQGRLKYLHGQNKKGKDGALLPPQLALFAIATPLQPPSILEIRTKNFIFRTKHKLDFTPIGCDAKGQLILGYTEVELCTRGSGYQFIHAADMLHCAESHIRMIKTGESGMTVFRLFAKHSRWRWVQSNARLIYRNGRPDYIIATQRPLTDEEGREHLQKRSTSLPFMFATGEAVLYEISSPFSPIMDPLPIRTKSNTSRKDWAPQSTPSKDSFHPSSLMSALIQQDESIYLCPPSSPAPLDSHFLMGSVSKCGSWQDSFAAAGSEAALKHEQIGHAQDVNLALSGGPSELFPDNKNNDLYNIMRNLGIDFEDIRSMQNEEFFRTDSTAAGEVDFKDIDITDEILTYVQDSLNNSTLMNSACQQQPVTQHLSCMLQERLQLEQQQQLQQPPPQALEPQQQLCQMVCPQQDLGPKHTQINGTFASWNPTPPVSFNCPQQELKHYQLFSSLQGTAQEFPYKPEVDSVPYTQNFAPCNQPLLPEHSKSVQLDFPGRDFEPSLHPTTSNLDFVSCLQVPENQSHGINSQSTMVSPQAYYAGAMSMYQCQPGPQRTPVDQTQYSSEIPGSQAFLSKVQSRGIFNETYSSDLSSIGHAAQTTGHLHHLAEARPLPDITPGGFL", "conditions": "mouse AHR higher than human AHR; cited from earlier work"}},
  "note": "Counter-ions that a name gives are not always drawn.",
  "data": [
    {"molecule": "O=C(OCC(O)CO)c1ccccc1Nc1ccnc2cc(Cl)ccc12", "note": "(centres unmarked) [glafenine]", "values": [
      {"measurement": "concentration of maximal induction", "setting": "CYP1A1 mRNA", "value": "maximal induction at the concentrations used for screening"},
      {"measurement": "increase according to the dose (dose-response, CYP1A1 mRNA)", "setting": "CYP1A1 mRNA; human", "value": "6- to 7 fold"}
    ]},
    {"molecule": "COc1ccc(/C=C/c2cc(OC)cc(=O)o2)cc1", "note": "[2-E05, yangonin]", "values": [
      {"measurement": "mCherry intensity compared to CH223191 and TMF", "setting": "AHR-CYP1A1 axis", "value": "significant decrease"},
      {"measurement": "inhibition of the effect of TCDD on mCherry expression", "setting": "AHR-CYP1A1 axis", "value": "at the levels of the non-treated control and CH223191"},
      {"measurement": "inhibition of the effect of TCDD on CYP1A1 activity", "setting": "CYP1A1", "value": "at the levels of the non-treated control and CH223191"},
      {"measurement": "cell death (cell viability)", "setting": "CYP1A1-mCherry HLC", "value": "without cell death"}
    ]},
    {"molecule": "Clc1cc2c(cc1Cl)Oc1cc(Cl)c(Cl)cc1O2", "note": "[TCDD, 2,3,7,8-tetrachlorodibenzo-p-dioxin]", "values": [
      {"measurement": "mCherry intensity after treatment", "setting": "AHR-CYP1A1 axis; CYP1A1-mCherry HLC, AHR agonist treatment, FIG. 6a", "value": "time-dependent increase"},
      {"measurement": "affinity of mouse AHR with TCDD compared to human AHR", "setting": "mouse AHR", "value": 10, "unit": "fold"},
      {"measurement": "CYP1A1 activity", "setting": "CYP1A1; 60 minutes, FIG. 6b", "value": "increased"}
    ]},
    {"molecule": "COc1ccc(Cc2nccc3cc(OC)c(OC)cc23)cc1OC", "note": "[papaverine hydrochloride]", "values": [
      {"measurement": "concentration of maximal induction", "setting": "CYP1A1 mRNA", "value": "maximal induction at the concentrations used for screening"},
      {"measurement": "increase according to the dose (dose-response, CYP1A1 mRNA)", "setting": "CYP1A1 mRNA; human", "value": "6- to 7 fold"}
    ]},
    {"molecule": "COc1cc(/C=C/c2ccccc2)oc(=O)c1", "note": "[2-E06, desmethoxyyangonin]", "values": [
      {"measurement": "mCherry intensity compared to CH223191 and TMF", "setting": "AHR-CYP1A1 axis", "value": "significant decrease"},
      {"measurement": "inhibition of the effect of TCDD on mCherry expression", "setting": "AHR-CYP1A1 axis", "value": "at the levels of the non-treated control and CH223191"},
      {"measurement": "inhibition of the effect of TCDD on CYP1A1 activity", "setting": "CYP1A1", "value": "at the levels of the non-treated control and CH223191"},
      {"measurement": "cell death (cell viability)", "setting": "CYP1A1-mCherry HLC", "value": "without cell death"}
    ]},
    {"molecule": "CC(Cc1ccc(O)c(O)c1)C(C)Cc1ccc(O)c(O)c1", "note": "(centres unmarked) [nordihydroguaiaretic acid]", "values": [
      {"measurement": "effect according to the dose (dose-response, CYP1A1 mRNA)", "setting": "CYP1A1 mRNA; human, 24 h", "value": "~ 2 times"}
    ]},
    {"molecule": "Cc1ccccc1N=Nc1ccc(NC(=O)c2ccnn2C)c(C)c1", "note": "[CH223191]", "values": [
      {"measurement": "transcript expression levels of CYP1A1 and mCherry", "setting": "CYP1A1 mRNA; co-treatment with BaP or TCDD, FIG. 7b", "value": "reduced"}
    ]}
  ]
}
